Assays:
Central CCK receptors = target: T1, Central CCK receptors (Rattus norvegicus, UniProt P30553); test: Central receptors: 3H CCK8 binding, rat cortex homogenate; details: 0.5 nM 3H CCK8, 25° C., 30 minutes
T1 construct: The cortices of 20 male rats weighing 150 to 200 g were removed, and were ground up with Polytron in sucrose; from tissue; host or cells: rat cerebral cortex homogenate (washed membrane pellet)
T1 sequence (P30553 1-452): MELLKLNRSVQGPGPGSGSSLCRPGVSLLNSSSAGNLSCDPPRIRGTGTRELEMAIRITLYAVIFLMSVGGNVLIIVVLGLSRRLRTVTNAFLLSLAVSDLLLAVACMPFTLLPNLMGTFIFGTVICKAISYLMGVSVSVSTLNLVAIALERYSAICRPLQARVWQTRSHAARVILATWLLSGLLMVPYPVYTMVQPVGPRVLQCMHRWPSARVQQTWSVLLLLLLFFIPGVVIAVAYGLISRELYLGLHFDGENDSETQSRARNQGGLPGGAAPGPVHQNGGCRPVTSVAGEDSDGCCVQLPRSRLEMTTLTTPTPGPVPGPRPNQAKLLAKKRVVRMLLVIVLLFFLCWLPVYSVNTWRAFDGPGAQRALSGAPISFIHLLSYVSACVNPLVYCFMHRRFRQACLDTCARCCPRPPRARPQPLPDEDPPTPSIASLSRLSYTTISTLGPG
Procedure: The cortices of 20 male rats weighing 150 to 200 g were removed, and were ground up with Polytron in sucrose 0.32M. After centrifuging, the supernatant was recovered and centrifuged. The residues were re-suspended in 120 ml of Hepes buffer pH 7.4 (Hepes 10 mM, NaCl 130 mM, MgCl2, 6H2 O 5 mM, bacitracin 250 mg/l., PMSF 1 mg/l), and re-centrifuged. The residues were taken up in 120 ml of Hepes buffer pH 7.4 and re-centrifuged at 30,000 g for 30 minutes. The residues thus obtained were taken up in 500 ml of Hepes buffer pH 7.4, which enabled 240 aliquots of 2 ml of homogenate to be obtained. The incubation was effected at 25° C. for 30 minutes in the presence of 0.5 nM of 3H CCK8 and the test product (10,000 μM for 1 dose, or with a range of 7 doses or of cold CCK8 (10^-6 M), which was the reference product). After returning the aliquots of the homogenate to 0° C., they were filtered on Whatman GF/B filters and the filters were washed with 3×5 ml of a Tris HCl 50 mM pH 7.4 buffer. The results are expressed is IC50 which is the concentration necessary to inhibit by 50% the fixed specific radioactivity.

[1] = test system: CCK8-induced contractions of isolated ileum; test: Action on the isolated ileum of a guinea-pig (antagonism of CCK8 contractions); details: product 10^-7 M, one minute contact, CCK8 1.10^-8 M
Procedure: The test was carried out on fragments of ileum from male guinea-pigs placed under a tension of 1 g in a Krebs solution aerated with carbogen and maintained at 37° C. The contractions were recorded with a microdynamometer connected to a polygraph. The ileum was left at rest for 30 minutes and then CCK8 was added to the bath in a concentration of 1.10^-8 M, followed by rinsing. The test product was added to the bath, left in contact with the organ for one minute and then CCK8 (1.10^-8 M) was added to the bath. The possible antagonism was expressed by comparing the contractions caused by the CCK8 before and after contact with the product under test.

Peripheral CCK receptors = target: T2, Peripheral CCK receptors (Rattus norvegicus, UniProt P30551); test: Peripheral receptors: 3H CCK8 binding, rat pancreas homogenate
T2 construct: The pancreases of 3 male rats weighing 150-200 g were removed and ground up with Polytron; from tissue; host or cells: rat pancreas homogenate (30,000 g pellet)
T2 sequence (P30551 1-444): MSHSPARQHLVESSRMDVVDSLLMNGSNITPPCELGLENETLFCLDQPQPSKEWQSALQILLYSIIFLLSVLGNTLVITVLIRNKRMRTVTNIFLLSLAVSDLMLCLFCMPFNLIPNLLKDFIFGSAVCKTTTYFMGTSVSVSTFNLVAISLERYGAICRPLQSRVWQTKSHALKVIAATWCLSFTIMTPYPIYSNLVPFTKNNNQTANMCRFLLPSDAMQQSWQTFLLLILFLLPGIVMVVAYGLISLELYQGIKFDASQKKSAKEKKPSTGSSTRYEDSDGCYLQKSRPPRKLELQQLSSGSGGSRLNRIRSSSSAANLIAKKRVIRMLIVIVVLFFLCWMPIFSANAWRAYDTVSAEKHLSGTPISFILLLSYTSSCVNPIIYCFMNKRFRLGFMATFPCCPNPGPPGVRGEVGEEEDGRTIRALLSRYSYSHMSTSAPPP
Procedure: The pancreases of 3 male rats weighing 150-200 g were removed and ground up with Polytron (4 grindings, speed 3, with an interval of 10 seconds between the grindings) and the homogenate was filtered through a gauze and then centrifuged at 30,000 g for 30 minutes. The residues obtained were taken up in 400 volumes (600 ml) of Tris 50 mM HCl pH 7.4 buffer containing BSA 2 g/l., bacitracin 0.1 mM, MgCl2 5 mM, dithiothreitol 5 mM. 2 ml aliquots of the homogenate were incubated at 25° C. for 60 minutes in the presence of […] 3H CCK8 and of the test product (10,000 μM for 1 dose, or with one range of 7 doses) and of cold CCK8 (10^-6 M) which was the reference product. After returning to 0° C., the aliquots were filtered on Whatman GF/B filters, pre-washed in a solution of polyethylene imine at 0.05% and washed with 3×5 ml of buffer Tris HCl 50 mM, pH 7.4. The results were expressed in IC50, the concentration necessary to inhibit by 50% the fixed specific radioactivity, IC50 n mol

food consumption = test: Action on the alimentary intake in a rat; format: in vivo; details: 10 mg/kg intraperitoneal, consumption followed hourly for 5 hours
Procedure: The tests were carried out on groups of 5 rats weighing 250 g±10 g and the animals were individually placed in cages with a trough as described by Fregly (J. Appl. Physiol Vol. 15 (1960), p. 539) which avoided wasting of the powdered foodstuffs. The rats were accustomed to taking their daily portion over 5 consecutive hours with as much drinking water as desired being offered in glass feeding bottles. The quantities of food ingested were determined individually by the weight of the troughs and the comsumptions were followed hourly for 5 hours after intraperitoneal administration of 10 mg/kg of the compound. The quantities consumed are expressed in g/100 g of body weight per hour. The averages are compared to those obtained with control animals by a DUNNETT test.

| Structure (SMILES) | IC50 (Central CCK receptors) | antagonism of contractions caused by CCK8 [1] | IC50 (Peripheral CCK receptors) | reduction of food consumption in relation to control animals (anorexigenic activity) (food consumption) |
| --- | --- | --- | --- | --- |
| CN1C(=O)C(NC(=O)c2cc3ccccc3[nH]2)C(=O)N(c2ccccc2)c2ccccc21 (stereo not drawn) [Example 2] | > 10000 nM | significant antagonist activity | 14 nM | – |
| CN1C(=O)C(NC(=O)c2cc3ccccc3[nH]2)C(=O)N(c2ccccc2)c2cc(Cl)ccc21 (stereo not drawn) [Example 1, N-(7-chloro-2,4-dioxo-1-methyl-5-phenyl-2,3,4,5-tetrahydro-1H-1,5-benzodiazepin-3-yl)-1H-indole-2-carboxamide] | 2200 nM | – | 20 nM | more than 50% |
